This is an account of results in patent publication US9133157B2, “HIV protease inhibitors” (Merck Canada Inc., priority 2011, dated 2015).

Molecules are shown by their SMILES.

As a reminder, the IC50 is the point on the concentration scale where inhibition reaches its midpoint.

The target in the assay is WT HIV-1 protease (Human immunodeficiency virus type 1 group M subtype B (isolate HXB2) (HIV-1), UniProt P04585). The assay is described as follows: Assay for inhibition of microbial expressed HIV protease (Procedure A, peptide substrate, HPLC fluorescence detection). Format: biochemical. The note with it: WT HIV-1 protease 10 pM, substrate 400 micromolar, pH 5.5, 30 min preincubation, 1 hour at 30° C.; read-out: Enzyme inhibition IC50. As for the experimental part:
The inhibition of WT HIV-1 protease was studied using the reaction of the protease (expressed in Eschericia coli) with a peptide substrate [Val-Ser-Gln-Asn-(betanaphthyl)Ala-Pro-Ile-Val (SEQ ID NO:1)]. Compounds were tested using Procedure A. In Procedure A, the test compound was first preincubated with the enzyme in assay buffer (50 mM sodium acetate, pH 5.5, 100 mM NaCl, and 0.1% BSA) for 30 minutes at room temperature. Substrate was then added to 400 micromolar in a total volume of 80 microliters containing 10 picomolar HIV-1 protease and the reaction was incubated for 1 hour at 30° C. The reaction was quenched with the addition of 120 microliters of 10% phosphoric acid. The product formation was determined after separation of product and substrate on a Zorbax Eclipse XDB-C18 column (Agilent Technologies, Santa Clara, Calif.) connected to an Agilent 1100 high performance liquid chromatography system with fluorescence detection (excitation 270 nanometer and emission 330 nanometer).
On to `COC(=O)N[C@H](C(=O)N[C@H](c1ccc([C@@H](CO)N(C(C)C)S(=O)(=O)c2ccc(CO)cc2)s1)C(F)(F)F)C(c1ccccc1)c1ccccc1` [Example 65, Nα-(methoxycarbonyl)-β-phenyl-N-[(1S)-2,2,2-trifluoro-1-(5-{(1R)-2-hydroxy-1-[{[4-(hydroxymethyl)phenyl]sulfonyl}(propan-2-yl)amino]ethyl}thiophen-2-yl)ethyl]-L-phenylalaninamide], for which the IC50 was 0.18 nM.

As for `COC(=O)Nc1ccc(S(=O)(=O)N(CCC(C)(C)C)[C@H](CO)c2ccc([C@@H](NC(=O)[C@@H](NC(=O)OC)C(c3ccccc3)c3ccccc3)C(F)(F)F)s2)cc1` [Example 70, N-[(1S)-1-(5-{1-[(3,3-dimethylbutyl)({4-[(methoxycarbonyl)amino]phenyl}sulfonyl)amino]-2-hydroxyethyl}thiophen-2-yl)-2,2,2-trifluoroethyl]-Nα-(methoxycarbonyl)-β-phenyl-L-phenylalaninamide], the IC50 worked out at 3.16 nM.

In the case of `COC(=O)N[C@H](C(=O)N[C@H](c1ccc([C@@H](CO)N(CCC(C)(C)C)S(=O)(=O)c2ccc3nccn3c2)s1)C(F)(F)F)C(c1ccccc1)c1ccccc1` [Example 71, N-[(1S)-1-(5-{(1R)-1-[(3,3-dimethylbutyl)(imidazo[1,2-a]pyridin-6-ylsulfonyl)amino]-2-hydroxyethyl}thiophen-2-yl)-2,2,2-trifluoroethyl]-Nα-(methoxycarbonyl)-β-phenyl-L-phenylalaninamide], the IC50 amounted to 6.64 nM.

Regarding `COC(=O)N[C@H](C(=O)N[C@H](c1ccc([C@@H](CO)N(CCC(C)(C)C)S(=O)(=O)c2ccc3ncccc3c2)s1)C(F)(F)F)C(c1ccccc1)c1ccccc1` [Example 73, Methyl [(2S)-1-{[(1S)-1-(5-{(1R)-1-[(3,3-dimethylbutyl)(quinolin-6-ylsulfonyl)amino]-2-hydroxyethyl}thiophen-2-yl)-2,2,2-trifluoroethyl]amino}-1-oxo-3,3-diphenylpropan-2-yl]carbamate], the IC50 is 2.03 nM.

In the case of `COC(=O)N[C@H](C(=O)N[C@H](c1ccc([C@@H](CO)N(CCC(C)(C)C)S(=O)(=O)c2ccc3nc[nH]c3c2)s1)C(F)(F)F)C(c1ccccc1)c1ccccc1` [Example 74, N-[(1S)-1-(5-{(1R)-1-[(1H-benzimidazol-6-ylsulfonyl)(3,3-dimethylbutyl)amino]-2-hydroxyethyl}thiophen-2-yl)-2,2,2-trifluoroethyl]-Nα-(methoxycarbonyl)-β-phenyl-L-phenylalaninamide], the IC50 is 0.45 nM.

For the compound `COC(=O)N[C@H](C(=O)N[C@@H](C)c1ccc([C@@H](CO)N(C(C)C)S(=O)(=O)c2ccc(N)cc2)s1)C(c1ccccc1)c1ccccc1` [Example 75, N-[(1S)-1-{5-[(1R)-1-{[(4-aminophenyl)sulfonyl](propan-2-yl)amino}-2-hydroxyethyl]thiophen-2-yl}ethyl]-Nα-(methoxycarbonyl)-β-phenyl-L-phenylalaninamide], the IC50 was found to be 7.89 nM.

Turning to `COC(=O)N[C@H](C(=O)N[C@@H](C)c1ccc([C@@H](CO)N(CC(C)C)S(=O)(=O)c2ccc(N)cc2)s1)C(c1ccccc1)c1ccccc1` [Example 76, N-[(1S)-1-{5-[(1R)-1-{[(4-aminophenyl)sulfonyl](2-methylpropyl)amino}-2-hydroxyethyl]thiophen-2-yl}ethyl]-Nα-(methoxycarbonyl)-β-phenyl-L-phenylalaninamide], the IC50 was found to be 11.8 nM.

As to `COC(=O)N[C@H](C(=O)N[C@H](c1ccc([C@@H](CO)N(C(C)C)S(=O)(=O)c2ccc(N)cc2)s1)C(F)(F)F)C(c1ccccc1)c1ccccc1` [Example 77, N-[(1S)-1-{5-[(1R)-1-{[(4-aminophenyl)sulfonyl](propan-2-yl)amino}-2-hydroxyethyl]thiophen-2-yl}-2,2,2-trifluoroethyl]-Nα-(methoxycarbonyl)-β-phenyl-L-phenylalaninamide], the IC50 stood at 23 nM.

With `COC(=O)N[C@H](C(=O)N[C@H](c1ccc([C@@H](CO)N(C(C)C)S(=O)(=O)c2ccc3[nH]ccc3c2)s1)C(F)(F)F)C(c1ccccc1)c1ccccc1` [Example 78, Nα-(methoxycarbonyl)-β-phenyl-N-[(1S)-2,2,2-trifluoro-1-(5-{(1R)-2-hydroxy-1-[(1H-indol-5-ylsulfonyl)(propan-2-yl)amino]ethyl}thiophen-2-yl)ethyl]-L-phenylalaninamide], the IC50 stood at 66.1 nM.

Consider `COC(=O)N[C@H](C(=O)N[C@H](c1ccc([C@@H](CO)N(C(C)C)S(=O)(=O)c2ccc3cc[nH]c3c2)s1)C(F)(F)F)C(c1ccccc1)c1ccccc1` [Example 79, Nα-(methoxycarbonyl)-β-phenyl-N-[(1S)-2,2,2-trifluoro-1-(5-{(1R)-2-hydroxy-1-[(1H-indol-6-ylsulfonyl)(propan-2-yl)amino]ethyl}thiophen-2-yl)ethyl]-L-phenylalaninamide], for which the IC50 was found to be 12.5 nM.

Take `COC(=O)N[C@H](C(=O)N[C@H](c1ccc([C@@H](CO)N(C(C)C)S(=O)(=O)c2ccc(N)c(F)c2)s1)C(F)(F)F)C(c1ccccc1)c1ccccc1` [Example 80, N-[(1S)-1-{5-[(1R)-1-{[(4-amino-3-fluorophenyl)sulfonyl](propan-2-yl)amino}-2-hydroxyethyl]thiophen-2-yl}-2,2,2-trifluoroethyl]-Nα-(methoxycarbonyl)-β-phenyl-L-phenylalaninamide]: the IC50 was 30.5 nM.

Regarding `COC(=O)N[C@H](C(=O)N[C@H](c1ccc([C@@H](CO)N(C(C)C)S(=O)(=O)c2ccc3cn[nH]c3c2)s1)C(F)(F)F)C(c1ccccc1)c1ccccc1` [Example 81, Nα-(methoxycarbonyl)-β-phenyl-N-[(1S)-2,2,2-trifluoro-1-(5-{(1R)-2-hydroxy-1-[(1H-indazol-6-ylsulfonyl)(propan-2-yl)amino]ethyl}thiophen-2-yl)ethyl]-L-phenylalaninamide], the IC50 was 74.1 nM.

Regarding `COC(=O)N[C@H](C(=O)N[C@H](c1ccc([C@@H](CO)N(CCC(C)C)S(=O)(=O)c2ccc(N)cc2)s1)C(F)(F)F)C(c1ccccc1)c1ccccc1` [Example 83, N-[(1S)-1-{5-[(1R)-1-{[(4-aminophenyl)sulfonyl](3-methylbutyl)amino}-2-hydroxyethyl]thiophen-2-yl}-2,2,2-trifluoroethyl]-Nα-(methoxycarbonyl)-β-phenyl-L-phenylalaninamide], the IC50 was determined as 0.3 nM.

Consider `COC(=O)N[C@H](C(=O)N[C@H](c1ccc([C@@H](CO)N(CC2CC(F)(F)C2)S(=O)(=O)c2ccc(N)cc2)s1)C(F)(F)F)C(c1ccccc1)c1ccccc1` [Example 84, N-[(1S)-1-{5-[(1R)-1-{[(4-aminophenyl)sulfonyl][(3,3-difluorocyclobutyl)methyl]amino}-2-hydroxyethyl]thiophen-2-yl}-2,2,2-trifluoroethyl]-Nα-(methoxycarbonyl)-β-phenyl-L-phenylalaninamide], for which the IC50 came out at 0.75 nM.

Regarding `COC(=O)N[C@H](C(=O)N[C@H](c1ccc([C@@H](CO)N(CCC(F)(F)F)S(=O)(=O)c2ccc(N)cc2)s1)C(F)(F)F)C(c1ccccc1)c1ccccc1` [Example 85, N-[(1S)-1-{5-[(1R)-1-{[(4-aminophenyl)sulfonyl](3,3,3-trifluoropropyl)amino}-2-hydroxyethyl]thiophen-2-yl}-2,2,2-trifluoroethyl]-Nα-(methoxycarbonyl)-β-phenyl-L-phenylalaninamide], the IC50 was 0.33 nM.

In the case of `COC(=O)N[C@H](C(=O)N[C@H](c1ccc([C@@H](CO)N(CCC2CC2)S(=O)(=O)c2ccc(N)cc2)s1)C(F)(F)F)C(c1ccccc1)c1ccccc1` [Example 86], the IC50 stood at 0.34 nM.

Turning to `COC(=O)N[C@H](C(=O)N[C@H](c1ccc([C@@H](CO)NS(=O)(=O)c2ccc(N)cc2)s1)C(F)(F)F)C(c1ccccc1)c1ccccc1` [Example 87, N-[(1S)-1-{5-[(1R)-1-{[(4-aminophenyl)sulfonyl]amino}-2-hydroxyethyl]thiophen-2-yl}-2,2,2-trifluoroethyl]-Nα-(methoxycarbonyl)-β-phenyl-L-phenylalaninamide], the IC50 was 194 nM.

With `CCCCN([C@H](CO)c1ccc([C@@H](NC(=O)[C@@H](NC(=O)OC)C(c2ccccc2)c2ccccc2)C(F)(F)F)s1)S(=O)(=O)c1ccc(N)cc1` [Example 88, N-[(1S)-1-{5-[(1R)-1-{[(4-aminophenyl)sulfonyl](butyl)amino}-2-hydroxyethyl]thiophen-2-yl}-2,2,2-trifluoroethyl]-Nα-(methoxycarbonyl)-β-phenyl-L-phenylalaninamide], the IC50 was 0.33 nM.

For `COC(=O)N[C@H](C(=O)N[C@H](c1ccc([C@@H](CO)N(CCc2ccccc2)S(=O)(=O)c2ccc(N)cc2)s1)C(F)(F)F)C(c1ccccc1)c1ccccc1` [Example 89, N-[(1S)-1-{5-[(1R)-1-{[(4-aminophenyl)sulfonyl](2-phenylethyl)amino}-2-hydroxyethyl]thiophen-2-yl}-2,2,2-trifluoroethyl]-Nα-(methoxycarbonyl)-β-phenyl-L-phenylalaninamide], the IC50 was 2.6 nM.

`COC(=O)N[C@H](C(=O)N[C@H](c1ccc([C@@H](CO)N(CCC(C)(C)C)S(=O)(=O)c2ccc(-c3cnco3)cc2)s1)C(F)(F)F)C(c1ccccc1)c1ccccc1` [Example 90, N-[(1S)-1-(5-{(1R)-1-[(3,3-dimethylbutyl){[4-(1,3-oxazol-5-yl)phenyl]sulfonyl}amino]-2-hydroxyethyl}thiophen-2-yl)-2,2,2-trifluoroethyl]-Nα-(methoxycarbonyl)43-phenyl-L-phenylalaninamide]: the IC50 came to 25.9 nM.
